Results from US6610699B2, “Use of L-carnitine and its alkanoyl derivatives in the preparation of medicaments with anticancer activity” (Sigma-Tau Industrie Farmaceutiche Riunite S.p.A., priority 1998, dated 2003).
Marks after values point to notes of the source that are not given here.

What was measured:
Hamsters = assay: Bleomycin-induced pulmonary toxicity in hamsters: lung histology; format: in vivo, hamster; settings: day 22
Description: Hamsters weighing 120 g were treated with bleomycin (1 unit) by the intratracheal route (IT) or with an equivalent volume of saline. In addition, the animals were pre-treated with ALC (200 mg/kg) or saline intraperitoneally just before the instillation of bleomycin, followed by daily injections for 1 week. The animals were allowed 3 weeks to recover prior to taking the tissue samples. At the time tissue samples were taken (day 22), one lung of each animal was prepared for histological investigation and the other lung for quantitative determination of hydroxyproline.
The lungs were fixed by insufflation at 20 cm of H2O ex vivo with 10% formaldehyde in PBS (pH 7), embedded in paraffin, sectioned and stained with haematoxylin/eosin. Sections with similar orientation from the portion of the pulmonary lobe—upper, middle and lower, respectively—were examined to verify the presence and degree of inflammatory infiltrate, oedema and interstitial and intra-alveolar fibrosis.

LOVO human colon cancer = settings: ALC 100 mg/kg qdx18 alone
Description: Cell cultures of LOVO human colon cancer, transplanted in hairless mice, were used.
The tumour was inoculated in solid fragments in both flanks of the mice (day 0).
The inoculated tumours were measured with a calliper and when a mean tumour weight of 100 mg was reached (day 7), the animals were divided into 4 groups of 5 animals each according to the following schedule:
On the same day, ALC treatment was initiated and was continued for 18 consecutive days (qdx18) (groups 3 and 4). ALC was administered at the dose of 100 mg/kg with an administration volume of 25 ml/kg.
In the course of the treatment and in the following three weeks at fortnightly intervals, the tumours were measured and tumour volume inhibition was calculated (TVI%, calculated as 100-(mean weight of tumours treated/mean weight of control tumours×100)) as obtained with the various treatments.

[1] = Taxol-induced weight loss: body weight; format: in vivo, rat; settings: for Body weight, BASAL: prior to starting treatment; for Body weight, % vs BASALE / Body weight, % vs SHAM: 5 weeks; for Body weight, 5 WEEKS: end of treatment
From the text: The animals used in the preceding experimental model were weighed prior to starting treatment (basal values) and at the end of treatment.

SMILES	lung histology (in words) (Hamsters; animals pre-treated with ALC and given bleomycin IT)	lung histology (in words) (Hamsters; pre-treatment/IT instillation)	effect on tumour growth (in words) (LOVO human colon cancer)	Body weight, BASAL ([1]; taxol 8 mg/kg groups)	Body weight, % vs BASALE ([1]; taxol 8 mg/kg)	Body weight, % vs SHAM ([1]; taxol 8 mg/kg)	Body weight, 5 WEEKS ([1]; taxol 8 mg/kg)	Body weight, BASAL ([1]; taxol 16 mg/kg groups)	Body weight, % vs BASALE ([1]; taxol 16 mg/kg)	Body weight, % vs SHAM ([1]; taxol 16 mg/kg)	Body weight, 5 WEEKS ([1]; taxol 16 mg/kg)
CC(=O)O[C@H](CC(=O)[O-])C[N+](C)(C)C [ALC, acetyl L-carnitine]	a number of fibrotic areas, which, however, appeared thinner with less dense areas of collapse	normal alveolar architecture	no effect on tumour growth								
CC(=O)O[C@H]1C(=O)[C@@]2(C)[C@H]([C@H](OC(=O)c3ccccc3)[C@]3(O)C[C@H](OC(=O)[C@H](O)[C@@H](NC(=O)c4ccccc4)c4ccccc4)C(C)=C1C3(C)C)[C@]1(OC(C)=O)CO[C@@H]1C[C@@H]2O [Taxol, paclitaxel, reference compound]				210 ± 9.1	+13** %	+1%	237 ± 20.8	212 ± 12.5	−15** %	−23● %	180 ± 16.0
